Read-outs that look alike come from different tables or passages of the source. Where only a bound is given, the exact number is not on record here.

This passage reports IC50 results from article PMC1924862, “X-ray structures of Na-GST-1 and Na-GST-2 two glutathione s-transferase from the human hookworm Necator americanus” (BMC Structural Biology, 2007).

The target in one assay is T1, Na-GST-1 (Necator americanus, UniProt D3U1A5).
T1 construct: 206 residues ordered; homodimer; Nu class
T1 sequence (D3U1A5 1-206): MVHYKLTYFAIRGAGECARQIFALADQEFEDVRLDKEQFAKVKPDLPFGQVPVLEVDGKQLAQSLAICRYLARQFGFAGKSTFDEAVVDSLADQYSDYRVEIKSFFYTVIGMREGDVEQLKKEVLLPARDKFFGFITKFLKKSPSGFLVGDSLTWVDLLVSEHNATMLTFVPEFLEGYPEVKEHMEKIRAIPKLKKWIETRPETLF
Briefly: CDNB-glutathione conjugation, absorbance at […] nm. The format is biochemical.

In a further assay the target is T2, Na-GST-2 (Necator americanus, UniProt D3U1A6).
T2 construct: homodimer; Nu class; glutathione carried over from fermentation
T2 sequence (D3U1A6 1-206): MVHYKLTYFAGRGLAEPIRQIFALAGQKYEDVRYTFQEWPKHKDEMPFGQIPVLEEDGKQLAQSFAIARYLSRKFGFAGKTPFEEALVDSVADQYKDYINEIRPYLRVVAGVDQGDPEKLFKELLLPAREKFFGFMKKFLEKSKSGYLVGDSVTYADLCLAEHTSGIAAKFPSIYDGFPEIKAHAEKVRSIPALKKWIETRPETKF
Briefly: CDNB-glutathione conjugation, absorbance at […] nm. The format is biochemical.

As for `CCCSc1ccc2nc(NC(=O)OC)[nH]c2c1` [albendazole], the IC50 on Na-GST-1 (read-out: Na-GST-1) came out at 87 µM; against Na-GST-2, 68 µM.
As for `[Cl][Sn]([c]1ccccc1)([c]1ccccc1)[c]1ccccc1` [chlorotriphenyltin], the IC50 against Na-GST-1 was determined as 22 µM; on Na-GST-2, 0.7 µM.
As to `O=C(C1CCCCC1)N1CC(=O)N2CCc3ccccc3C2C1` (stereo not drawn) [praziquantel], the figures for the IC50 at Na-GST-1 (read-out: Na-GST-1) and on Na-GST-2 were above 20000 µM and 3300 µM, respectively.
